In patent US20230158025A1 (UNIVERSITY OF UTAH RESEARCH FOUNDATION, priority 2020, published 2023):
pIC50: −log10 of the molar value. Where two headings read alike, the source gives them in different places.

How the values were obtained:
[1] = aqueous kinetic solubility
recombinant human GALK1 = recombinant human GALK1 (Homo sapiens, UniProt P51570); experiment: hGALK1 biochemical activity assay (Kinase-Glo Plus, ATP depletion)
Procedure, shortened: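 Turnover is measured as ATP depletion by Kinase-Glo Plus luminescence after a 1 h room-temperature reaction. Compounds span 11 concentrations, 57.4 μM–0.97 nM, in final 20 mM HEPES pH 8.0 with 5 mM MgCl2. The substrate solution held 35 μM ATP; the added solution held 5 nM human or mouse GALK1 and 100 μM galactose.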

[2] = rat microsomal stability (RLM)
recombinant mouse GALK1 = recombinant mouse GALK1 (Mus musculus, UniProt Q9R0N0); experiment: mGALK1 biochemical activity assay (Kinase-Glo Plus, ATP depletion)
Chain of recombinant mouse GALK1 (Q9R0N0 whole entry): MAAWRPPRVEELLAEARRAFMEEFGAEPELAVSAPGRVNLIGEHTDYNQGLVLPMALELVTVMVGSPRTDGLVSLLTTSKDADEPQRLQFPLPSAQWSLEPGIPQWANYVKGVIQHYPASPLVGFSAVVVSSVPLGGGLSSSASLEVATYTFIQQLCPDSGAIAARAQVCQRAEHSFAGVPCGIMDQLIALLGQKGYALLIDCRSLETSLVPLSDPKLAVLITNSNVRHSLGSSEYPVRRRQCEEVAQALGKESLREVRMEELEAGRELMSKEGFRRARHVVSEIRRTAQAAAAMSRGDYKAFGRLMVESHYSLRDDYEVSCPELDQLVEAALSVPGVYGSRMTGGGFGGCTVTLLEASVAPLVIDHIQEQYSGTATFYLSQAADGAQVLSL
Procedure, shortened: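 Recombinant GALK1 (5 nM) with 100 μM galactose; GALK1 turnover read as ATP depletion by Kinase-Glo Plus luminescence. Reaction ran 1 h at room temperature before detection reagent was added.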

[3] = Tables 2-15, 35 μM ATP, 100 μM galactose, 1 h, bracketed figure after some values (e.g. −1.2) is undefined and not reported, read-out: hGALK IC50
[4] = recombinant human GALK1, Kinase-Glo Plus ATP depletion, read-out: hGALK
[5] = Tables 2-15, 35 μM ATP, 100 μM galactose, 1 h, bracketed figure after some values is undefined and not reported, read-out: mGALK IC50
[6] = recombinant mouse GALK1, Kinase-Glo Plus ATP depletion, read-out: mGALK
[7] = recombinant human GALK1, Kinase-Glo Plus ATP depletion, bracketed figure in the cell, e.g. (−1.2), is not defined in the text shown, read-out: hGALK
[8] = microsomal stability half-life, minutes
[9] = recombinant mouse GALK1, Kinase-Glo Plus ATP depletion, bracketed figure in the cell, e.g. (−1.2), is not defined in the text shown, read-out: mGALK

Chain of recombinant human GALK1 (P51570 whole entry): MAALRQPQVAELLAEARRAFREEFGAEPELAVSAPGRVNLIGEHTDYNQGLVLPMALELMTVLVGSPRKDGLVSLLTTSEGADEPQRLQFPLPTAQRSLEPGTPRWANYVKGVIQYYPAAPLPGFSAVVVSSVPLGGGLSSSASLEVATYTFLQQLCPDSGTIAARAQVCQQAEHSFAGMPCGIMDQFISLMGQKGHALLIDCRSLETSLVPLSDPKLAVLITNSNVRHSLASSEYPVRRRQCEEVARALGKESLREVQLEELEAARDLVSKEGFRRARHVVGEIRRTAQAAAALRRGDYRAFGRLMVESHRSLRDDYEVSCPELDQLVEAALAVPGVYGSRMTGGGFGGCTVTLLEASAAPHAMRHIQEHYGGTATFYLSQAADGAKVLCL

Row | SMILES | Perm. (1 × 10^−6 cm/sec) (PAMPA permeability; PAMPA) | Sol. ([1]; aqueous kinetic solubility) | pIC50 (recombinant human GALK1; [3]) | pIC50 (recombinant human GALK1; [4]) | Metab. Stabil. (m) ([2]; microsomal stability half-life) | pIC50 (recombinant mouse GALK1; [5]) | pIC50 (recombinant mouse GALK1; [6]) | pIC50 (recombinant human GALK1; [7]) | Metab. Stabil. (m) [2, 8] | pIC50 (recombinant mouse GALK1; [9]) | Perm. (1 × 10^−6 cm/sec) (PAMPA permeability) | Sol. [1] | Metab. Stabil. (m) ([2]; microsomal half-life) | hGALK (μM) (recombinant human GALK1; recombinant human GALK1, Kinase-Glo Plus ATP depletion) | mGALK (μM) (recombinant mouse GALK1; recombinant mouse GALK1, Kinase-Glo Plus ATP depletion)
1 | CC1=C(C(=O)Nc2cc(C(=O)O)ccn2)[C@@H](c2ccccc2Cl)N=C(Nc2nc3ccccc3o2)N1 [Compound 209, (S)-2-(2-(benzo[d]oxazol-2-ylamino)-4-(2-chlorophenyl)-6-methyl-1,4-dihydropyrimidine-5-carboxamido)isonicotinic acid] | <1 1 × 10^−6 cm/sec | >74 µg/mL | 4.91 | 4.91 | >30 m | 4.71 | 4.71 | – | – | – | – | – | – | – | –
2 | O=C1CC(C(=O)Nc2nncs2)CC2=C1C(c1ccccc1Cl)N=C(Nc1nc3ccccc3o1)N2 (stereo not shown) [Compound 281, 2-(benzo[d]oxazol-2-ylamino)-4-(2-chlorophenyl)-5-oxo-N-(1,3,4-thiadiazol-2-yl)-1,4,5,6,7,8-hexahydroquinazoline-7-carboxamide] | <5 1 × 10^−6 cm/sec | 1.23 µg/mL | – | – | – | – | – | 5.16 | >30 m | 4.91 | – | – | – | – | –
3 | CC1=C(C(=O)Nc2nncs2)C(c2cc(Cl)ccc2Cl)N=C(Nc2nc3ccccc3o2)N1 (stereo not shown) [Compound 270, 2-(benzo[d]oxazol-2-ylamino)-4-(2,5-dichlorophenyl)-6-methyl-N-(1,3,4-thiadiazol-2-yl)-1,4-dihydropyrimidine-5-carboxamide] | 2.9 1 × 10^−6 cm/sec | <1 µg/mL | – | – | – | – | – | 5.21 | >30 m | 4.96 | – | – | – | – | –
4 | CC1=C(C(=O)Nc2nncs2)C(c2n[nH]cc2Br)N=C(Nc2nc3ccccc3o2)N1 (stereo not shown) [Compound 268, 2-(benzo[d]oxazol-2-ylamino)-4-(4-bromo-1H-pyrazol-3-yl)-6-methyl-N-(1,3,4-thiadiazol-2-yl)-1,4-dihydropyrimidine-5-carboxamide] | 27.4 1 × 10^−6 cm/sec | 11.4 µg/mL | – | – | – | – | – | 5.11 | >30 m | 4.71 | – | – | – | – | –
5 | CC1=C(C(=O)Nc2nnc(-c3cccnc3)s2)C(c2ccccc2Cl)N=C(Nc2nc3ccc(C)cc3o2)N1 (stereo not shown) [Compound 99, 4-(2-chlorophenyl)-2-((6-methylbenzo[d]oxazol-2-yl)amino)-6-methyl-N-(5-(pyridin-3-yl)-1,3,4-thiadiazol-2-yl)-1,4-dihydropyrimidine-5-carboxamide] | – | – | – | – | – | – | – | – | – | – | <2.9 1 × 10^−6 cm/sec | <1 µg/mL | >30 m | in- active | in- active
6 | CC1=C(C(=O)Nc2nnc(C(F)(F)F)s2)C(c2ccccc2Cl)N=C(Nc2nc3ccccc3o2)N1 (stereo not shown) [Compound 167, 2-(benzo[d]oxazol-2-ylamino)-4-(2-chlorophenyl)-6-methyl-N-(5-(trifluoromethyl)-1,3,4-thiadiazol-2-yl)-1,4-dihydropyrimidine-5-carboxamide] | 12.6 1 × 10^−6 cm/sec | <1 µg/mL | 4.91 | 4.91 | >30 m | 4.66 | 4.66 | – | – | – | – | – | – | – | –
7 | CC1=C(C(=O)Nc2nncs2)C(c2ccc(C)cc2Cl)N=C(Nc2nc3ccccc3o2)N1 (stereo not shown) [Compound 264, 2-(benzo[d]oxazol-2-ylamino)-4-(2-chloro-4-methylphenyl)-6-methyl-N-(1,3,4-thiadiazol-2-yl)-1,4-dihydropyrimidine-5-carboxamide] | <14.4 1 × 10^−6 cm/sec | <1 µg/mL | – | – | – | – | – | 5.51 | >30 m | 5.21 | – | – | – | – | –

Second part, the compound after the results:

Row | Perm. (1 × 10^−6 cm/sec) (PAMPA permeability; PAMPA) | Sol. ([1]; aqueous kinetic solubility) | pIC50 (recombinant human GALK1; [3]) | pIC50 (recombinant human GALK1; [4]) | Metab. Stabil. (m) ([2]; microsomal stability half-life) | pIC50 (recombinant mouse GALK1; [5]) | pIC50 (recombinant mouse GALK1; [6]) | pIC50 (recombinant human GALK1; [7]) | Metab. Stabil. (m) [2, 8] | pIC50 (recombinant mouse GALK1; [9]) | Perm. (1 × 10^−6 cm/sec) (PAMPA permeability) | Sol. [1] | Metab. Stabil. (m) ([2]; microsomal half-life) | hGALK (μM) (recombinant human GALK1; recombinant human GALK1, Kinase-Glo Plus ATP depletion) | mGALK (μM) (recombinant mouse GALK1; recombinant mouse GALK1, Kinase-Glo Plus ATP depletion) | SMILES
8 | <1 1 × 10^−6 cm/sec | >74 µg/mL | 6.27 | 6.27 | >30 m | 5.46 | 5.46 | – | – | – | – | – | – | – | – | CC1=C(C(=O)Nc2cc(C(=O)O)ccn2)[C@H](c2ccccc2Cl)N=C(Nc2nc3ccccc3o2)N1 [Compound 208, (R)-2-(2-(benzo[d]oxazol-2-ylamino)-4-(2-chlorophenyl)-6-methyl-1,4-dihydropyrimidine-5-carboxamido)isonicotinic acid]
9 | – | – | 5.92 | 5.92 | – | 5.41 | 5.41 | – | – | – | <1 1 × 10^−6 cm/sec | 28.6 µg/mL | >30 m | – | – | CC1=C(C(=O)Nc2cc(C(=O)O)ccn2)C(c2ccc(-c3ccc(C(F)(F)F)nc3)cc2Cl)N=C(Nc2nc3ccc(F)cc3o2)N1 (stereo not shown) [Compound 70, 2-(4-(2-chloro-4-(6-(trifluoromethyl)pyridin-3-yl)phenyl)-2-((6-fluorobenzo[d]oxazol-2-yl)amino)-6-methyl-1,4-dihydropyrimidine-5-carboxamido)isonicotinic acid]
10 | 173.5 1 × 10^−6 cm/sec | <1 µg/mL | – | 5.36 | >30 m | 4.96 | 4.96 | – | – | – | – | – | – | – | – | CC1=C(C(=O)Nc2ccccn2)C(c2ccccc2Cl)N=C(Nc2nc3ccccc3o2)N1 (stereo not shown) [Compound 214, 2-(benzo[d]oxazol-2-ylamino)-4-(2-chlorophenyl)-6-methyl-N-(pyridin-2-yl)-1,4-dihydropyrimidine-5-carboxamide]
11 | 615.7 1 × 10^−6 cm/sec | <1 µg/mL | 5.31 | 5.31 | 3.416 m | 5.11 | 5.11 | – | – | – | – | – | – | – | – | COC(=O)c1cccc(CNC(=O)C2=C(C)NC(Nc3nc4ccccc4o3)=NC2c2ccccc2Cl)c1 (stereo not shown) [Compound 224, methyl 3-((2-(benzo[d]oxazol-2-ylamino)-4-(2-chlorophenyl)-6-methyl-1,4-dihydropyrimidine-5-carboxamido)methyl)benzoate]
12 | – | – | – | 5.01 | – | – | 4.66 | – | – | – | <4.4 1 × 10^−6 cm/sec | <1 µg/mL | >30 m | – | – | COc1ccc2nc(NC3=NC(c4ccccc4Cl)C(C(=O)Nc4nnc(-c5cccnc5)s4)=C(C)N3)oc2c1 (stereo not shown) [Compound 93, 4-(2-chlorophenyl)-2-((6-methoxybenzo[d]oxazol-2-yl)amino)-6-methyl-N-(5-(pyridin-3-yl)-1,3,4-thiadiazol-2-yl)-1,4-dihydropyrimidine-5-carboxamide]
13 | 868.8 1 × 10^−6 cm/sec | <1 µg/mL | – | 5.31 | 6.574 m | 4.91 | 4.91 | – | – | – | – | – | – | – | – | CC1=C(C(=O)NCc2cccc(CO)c2)C(c2ccccc2Cl)N=C(Nc2nc3ccccc3o2)N1 (stereo not shown) [Compound 227, 2-(benzo[d]oxazol-2-ylamino)-4-(2-chlorophenyl)-N-(3-(hydroxymethyl)benzyl)-6-methyl-1,4-dihydropyrimidine-5-carboxamide]
14 | – | – | 5.41 | 5.41 | – | 5.31 | 5.31 | – | – | – | 16.91 1 × 10^−6 cm/sec | <1 µg/mL | 2.66 m | – | – | CC1=C(C(=O)NCc2c(C)nn(C)c2C)C(c2ccc(C)cc2Cl)N=C(Nc2nc3ccc(F)cc3o2)N1 (stereo not shown) [Compound 111, 4-(2-chloro-4-methylphenyl)-2-((6-fluorobenzo[d]oxazol-2-yl)amino)-6-methyl-N-((1,3,5-trimethyl-1H-pyrazol-4-yl)methyl)-1,4-dihydropyrimidine-5-carboxamide]
15 | – | – | – | 5.21 | – | – | 4.71 | – | – | – | <3.4 1 × 10^−6 cm/sec | <1 µg/mL | >30 m | – | – | CC1=C(C(=O)Nc2nnc(-c3cccnc3)s2)C(c2ccccc2Cl)N=C(Nc2nc3cc(Cl)ccc3o2)N1 (stereo not shown) [Compound 98]
16 | – | – | 6.11 | 6.11 | – | 5.11 | 5.11 | – | – | – | <1 1 × 10^−6 cm/sec | 29.9 µg/mL | >30 m | – | – | CC1=C(C(=O)Nc2cc(-c3nn[nH]n3)ccn2)C(c2ccccc2Cl)N=C(Nc2nc3ccc(F)cc3o2)N1 (stereo not shown) [Compound 41, N-(4-(2H-tetrazol-5-yl)pyridin-2-yl)-4-(2-chlorophenyl)-2-((6-fluorobenzo[d]oxazol-2-yl)amino)-6-methyl-1,4-dihydropyrimidine-5-carboxamide]
17 | – | – | 5.31 | 5.31 | – | 4.71 | 4.71 | – | – | – | 15.5 1 × 10^−6 cm/sec | 2.4 µg/mL | >30 m | – | – | CC1=C(C(=O)Nc2cc(C(N)=O)ccn2)C(c2ccccc2Cl)N=C(Nc2nc3ccc(F)cc3o2)N1 (stereo not shown) [Compound 38, N-(4-carbamoylpyridin-2-yl)-4-(2-chlorophenyl)-2-((6-fluorobenzo[d]oxazol-2-yl)amino)-6-methyl-1,4-dihydropyrimidine-5-carboxamide]
